Measurements taken from patent publication US8895726B2, “Compounds derived from indole and pharmaceutical compositions containing them” (The Institut Curie, priority 2007, dated 2014).

Target: T1, interaction between hUPF1 and hSMG5 (Homo sapiens, UniProt Q92900+Q9UPR3)
T1 construct: a complementary analysis of the immunoprecipitates of the hUPF1 protein from HeLa cells; endogenous in cells; host or cells: HeLa
T1 sequence (Q92900 1-1129): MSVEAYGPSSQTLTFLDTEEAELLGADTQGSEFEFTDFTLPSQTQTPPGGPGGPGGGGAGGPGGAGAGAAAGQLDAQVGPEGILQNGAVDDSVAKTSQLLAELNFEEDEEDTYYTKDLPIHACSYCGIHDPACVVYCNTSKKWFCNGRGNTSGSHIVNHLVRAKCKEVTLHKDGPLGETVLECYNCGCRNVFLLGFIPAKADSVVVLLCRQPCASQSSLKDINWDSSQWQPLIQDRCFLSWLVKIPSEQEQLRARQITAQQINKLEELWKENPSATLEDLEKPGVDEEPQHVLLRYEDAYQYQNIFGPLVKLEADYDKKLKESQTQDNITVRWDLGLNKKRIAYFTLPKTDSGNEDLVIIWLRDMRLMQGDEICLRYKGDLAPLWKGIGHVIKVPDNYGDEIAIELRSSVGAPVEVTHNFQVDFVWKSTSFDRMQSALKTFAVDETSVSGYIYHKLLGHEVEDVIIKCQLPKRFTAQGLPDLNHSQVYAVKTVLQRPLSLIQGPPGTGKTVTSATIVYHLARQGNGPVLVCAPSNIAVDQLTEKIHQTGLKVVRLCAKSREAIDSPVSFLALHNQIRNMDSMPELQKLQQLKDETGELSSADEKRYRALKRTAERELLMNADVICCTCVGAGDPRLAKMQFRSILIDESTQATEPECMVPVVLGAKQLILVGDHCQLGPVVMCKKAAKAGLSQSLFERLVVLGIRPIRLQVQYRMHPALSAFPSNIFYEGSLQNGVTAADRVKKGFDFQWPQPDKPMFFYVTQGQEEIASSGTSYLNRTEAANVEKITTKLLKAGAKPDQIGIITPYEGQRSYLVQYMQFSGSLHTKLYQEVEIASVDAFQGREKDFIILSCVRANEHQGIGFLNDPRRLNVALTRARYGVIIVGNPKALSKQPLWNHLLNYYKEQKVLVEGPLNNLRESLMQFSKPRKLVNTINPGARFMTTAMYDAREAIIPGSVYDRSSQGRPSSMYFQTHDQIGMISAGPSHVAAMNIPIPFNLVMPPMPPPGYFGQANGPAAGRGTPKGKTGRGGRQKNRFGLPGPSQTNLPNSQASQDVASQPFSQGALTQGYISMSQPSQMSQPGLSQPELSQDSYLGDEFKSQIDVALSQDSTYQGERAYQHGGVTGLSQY
T1 sequence (Q9UPR3 2-1016 limits assumed): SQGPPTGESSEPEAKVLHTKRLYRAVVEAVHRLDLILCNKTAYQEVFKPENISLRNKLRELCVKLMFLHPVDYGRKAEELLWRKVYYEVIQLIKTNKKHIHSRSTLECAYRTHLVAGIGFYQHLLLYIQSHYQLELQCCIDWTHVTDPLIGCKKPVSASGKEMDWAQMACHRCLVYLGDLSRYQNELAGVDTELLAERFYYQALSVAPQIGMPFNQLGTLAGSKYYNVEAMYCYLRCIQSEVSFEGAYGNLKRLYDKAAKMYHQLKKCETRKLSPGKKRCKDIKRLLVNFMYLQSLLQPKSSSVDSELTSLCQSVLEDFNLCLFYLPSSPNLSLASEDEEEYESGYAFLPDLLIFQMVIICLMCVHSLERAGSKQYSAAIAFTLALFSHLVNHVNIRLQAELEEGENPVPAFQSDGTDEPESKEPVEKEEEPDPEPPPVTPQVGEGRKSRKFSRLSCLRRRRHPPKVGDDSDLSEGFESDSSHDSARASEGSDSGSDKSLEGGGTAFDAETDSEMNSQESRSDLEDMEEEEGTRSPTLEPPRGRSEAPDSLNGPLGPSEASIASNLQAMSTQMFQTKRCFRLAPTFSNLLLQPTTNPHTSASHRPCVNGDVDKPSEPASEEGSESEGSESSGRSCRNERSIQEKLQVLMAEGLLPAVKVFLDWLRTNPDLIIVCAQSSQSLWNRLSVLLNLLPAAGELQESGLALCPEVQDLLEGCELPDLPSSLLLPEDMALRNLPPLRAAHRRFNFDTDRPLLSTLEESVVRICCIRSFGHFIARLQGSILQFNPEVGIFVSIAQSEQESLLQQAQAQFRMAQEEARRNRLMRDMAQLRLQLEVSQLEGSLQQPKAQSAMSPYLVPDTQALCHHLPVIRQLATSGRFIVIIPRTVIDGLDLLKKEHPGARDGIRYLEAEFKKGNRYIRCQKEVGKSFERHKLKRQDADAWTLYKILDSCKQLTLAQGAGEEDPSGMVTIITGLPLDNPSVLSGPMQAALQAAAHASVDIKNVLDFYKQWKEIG
Test: hUPF1 immunoprecipitation, dephosphorylation complex
Assay type: cell-based
Details: HeLa cells
Protocol: Immunopurification of hUPF1 and western blot analysis were carried out according to a procedure described earlier (Lejeune and Maquat, 2004) by using an anti-hUPF1 antibody (Ohnishi et al., 2003), The western blot analyses were conducted by using a 1/250 dilution of anti-hUPF1, anti-hSMG5, anti-hSMG6 or anti-hSMG7 rabbit antibodies (Ohnishi et al., 2003), a 1/1000 dilution of anti-hUPF3/3X rabbit antibody (Ishigaki et al., 2001) or of anti-TUBILIN mouse antibody (SIGMA-ALDRICH). The proteins were detected by using the <<SuperSignal West Pico Chemiluminescent Substrate>> or <<SuperSignal West Femto Maximum Sensitivity Substrate>> (PIERCE).
In order to determine which of both mechanisms would be induced by the identified compounds, a complementary analysis of the immunoprecipitates of the hUPF1 protein from HeLa cells, either incubated or not in the presence of the compound 70, was carried out.
In a first phase, the analysis of hUPF1 with its dephosphorylation complex was carried out. The results have shown that hSMG5, hSMG6 and hSMG7 may be detected in cells treated with DMSO but that hSMG5 was undetectable on the other hand when the HeLa cells had been incubated beforehand with compound 70.

Question: For `Cc1c2ccnc(Cl)c2c(C)c2c1[nH]c1ncccc12` [Compound 70, 6-Chloro-5,1-0dimethyl-11H-pyrido[3′,2′:4,5]-pyrrolo[3,2-g]isoquinoline], which “hSMG5 in hUPF1 immunoprecipitates” value is on record?
Answer: undetectable
